This data set deals with GENE-TOX genotoxicity assays, various organisms and cells. Description: GENE-TOX mutagenicity studies. The note with it: for call: Assay Type: In vivo carcinogenicity studies, Assay Code: CCG+.
The mark [1] stands for this setting: Species/Cell Type: Human lymphocytes, Assay Type: Sister-chromatid exchange (SCE) in vitro, Assay Code: SCL+D, Dose Response: With dose response, Evaluation Type: Evaluation B (Post-1980).
Where [2] appears, read: Species/Cell Type: Human, Assay Type: Sister-chromatid exchange (SCE) in vitro, Assay Code: SC1+D, Dose Response: With dose response, Evaluation Type: Evaluation B (Post-1980).
Where [3] appears, read: Species/Cell Type: Nonhuman, Evaluation Type: Evaluation A (Pre-1980).
The mark [4] stands for this setting: Species/Cell Type: Allium cepa, Assay Type: Chromosome aberrations, Assay Code: ALC+D, Dose Response: With dose response, Evaluation Type: Evaluation A (Pre-1980).
Where [5] appears, read: Species/Cell Type: Drosophila melanogaster, Assay Type: Aneuploidy, whole sex chromosome loss, chromosome aberrations, Assay Code: DAC+M, Evaluation Type: Evaluation A (Pre-1980).
[6] abbreviates: Species/Cell Type: Drosophila melanogaster, Assay Type: Sex-linked recessive lethal gene mutation, Assay Code: SRL+, Evaluation Type: Evaluation A (Pre-1980).
Where [7] appears, read: Species/Cell Type: Mammalian polychromatic erythrocytes, Assay Type: Micronucleus test, chromosome aberrations, Assay Code: MNT+, Evaluation Type: Evaluation B (Post-1980).
The mark [8] stands for this setting: Species/Cell Type: Salmonella typhimurium (one or more of the five standard strains: TA98, TA100, TA1535, TA1537, and TA1538), Assay Type: Histidine reverse gene mutation, Ames assay, Assay Code: SAL+, Evaluation Type: Evaluation A (Pre-1980).
Where [9] appears, read: Species/Cell Type: Salmonella typhimurium, Assay Type: Forward and reverse gene mutation, host-mediated assay, Assay Code: HMA+, Evaluation Type: Evaluation A (Pre-1980).
Where [10] appears, read: Species/Cell Type: Nonhuman, Assay Type: Sister-chromatid exchange (SCE) in vitro, Assay Code: SC2-, Evaluation Type: Evaluation B (Post-1980).
Setting [11] is: Species/Cell Type: Neurospora crassa, Assay Type: Aneuploidy, chromosome aberrations, Assay Code: NEN-, Evaluation Type: Evaluation A (Pre-1980).
[12] abbreviates: Species/Cell Type: Drosophila melanogaster, Assay Type: Sex-linked recessive lethal gene mutation, Assay Code: SRLT, Evaluation Type: Evaluation A (Pre-1980).
Where [13] appears, read: Species/Cell Type: Human lymphocytes, Assay Type: Sister-chromatid exchange (SCE) in vitro, Assay Code: SCL+, Evaluation Type: Evaluation B (Post-1980).
[14] abbreviates: Species/Cell Type: Human, Assay Type: Sister-chromatid exchange (SCE) in vitro, Assay Code: SC1+, Evaluation Type: Evaluation B (Post-1980).
Where [15] appears, read: Species/Cell Type: Salmonella typhimurium (one or more of the five standard strains: TA98, TA100, TA1535, TA1537, and TA1538), Assay Type: Histidine reverse gene mutation, Ames assay, Assay Code: SALT, Evaluation Type: Evaluation A (Pre-1980).

Active and inactive are the calls of the source. No rule for the calls is given here.

As for `O=C(Nc1ccc([N+](=O)[O-])cc1Cl)c1cc(Cl)ccc1O`, the mutagenic call under setting [1] is “active; positive”; the mutagenic call (Species/Cell Type: Human lymphocytes, Assay Type: Sister-chromatid exchange (SCE) in vivo, Assay Code: SCY+, Evaluation Type: Evaluation B (Post-1980)) was “active; positive”; the mutagenic call under setting [2] was “active; positive”.
As to `C[C@]12CC[C@@H]3c4ccc(O)cc4CC[C@H]3[C@@H]1CCC2=O`, the call under setting [3] was “active; positive”.
For the compound `CO[C@H](C)[C@](O)(C(=O)OCC1=CCN2CC[C@H](O)[C@@H]12)C(C)C`, the mutagenic call was “active; positive” under setting [4]; “active; positive” (Species/Cell Type: Aspergillus nidulans, Assay Type: Forward gene mutation, Assay Code: ASF+, Evaluation Type: Evaluation A (Pre-1980)); “no conclusion” (Species/Cell Type: Drosophila melanogaster, Assay Type: Aneuploidy, sex chromosome gain, chromosome aberrations, Assay Code: DAGT, Evaluation Type: Evaluation A (Pre-1980)); “active; positive” under setting [5]; “active; positive” under setting [6]; “no conclusion” (Species/Cell Type: Drosophila melanogaster, Sex: Male, Assay Type: Heritable translocation test, chromosome aberrations, Assay Code: DHTT, Evaluation Type: Evaluation A (Pre-1980)). Besides, the mutagenic call reads like this: under setting [7], “active; positive”; (Species/Cell Type: Nonhuman, Assay Type: Sister-chromatid exchange (SCE) in vitro, Assay Code: SC2+D, Dose Response: With dose response, Evaluation Type: Evaluation B (Post-1980)) “active; positive”.
Take `O=P([O-])([O-])[O-].O=P([O-])([O-])[O-].[Pb+2].[Pb+2].[Pb+2]`: under setting [3], the call was “active; positive”.
Take `Cc1ncc([N+](=O)[O-])n1C`: the mutagenic call under setting [8] was “active; positive”.
In the case of `COC(=O)Nc1nc2ccc(C(=O)c3ccccc3)cc2[nH]1`, the mutagenic call is “active; positive” (Species/Cell Type: Salmonella typhimurium, Assay Type: Forward and reverse gene mutation, body fluid assay, Assay Code: BFU+, Evaluation Type: Evaluation A (Pre-1980)); “active; positive” under setting [9].
Consider `COc1cc(C=O)ccc1O`, for which the mutagenic call is “active; positive” under setting [1] and “active; positive” under setting [2].
In the case of `CC(N)=S`, the mutagenic call was “active; positive” under setting [6]; “inactive; negative” (Species/Cell Type: Escherichia coli polA (W3110 vs P3478), Assay Type: Rec-assay, DNA effects (bacterial DNA repair), Assay Code: RE2-, Evaluation Type: Evaluation A (Pre-1980)); “no conclusion” (Species/Cell Type: Escherichia coli polA (W3119 vs P3478), Assay Type: Rec-assay, DNA effects (bacterial DNA repair), Assay Code: RE1T, Evaluation Type: Evaluation A (Pre-1980)); “active; positive” (Species/Cell Type: Fischer rat embryo (RLV/1706) cells, Assay Type: Cell transformation, viral enhanced, Assay Code: CTR+, Evaluation Type: Evaluation A (Pre-1980)); “active; positive” under setting [7]; “active; positive” (Species/Cell Type: Mouse embryo (AKR/ME) cells, Assay Type: Cell transformation, Assay Code: CTK+, Evaluation Type: Evaluation A (Pre-1980)). In addition, the mutagenic call is, setting by setting: (Species/Cell Type: Mouse, Sex: Male, Assay Type: Sperm morphology, Assay Code: SPI-, Evaluation Type: Evaluation A (Pre-1980)) “inactive; negative”; (Species/Cell Type: Saccharomyces cerevisiae, Assay Type: Mitotic recombination or gene conversion, Assay Code: YEH+/-*, Activation: With metabolic activation, Evaluation Type: Evaluation A (Pre-1980)) “inactive; positive without activation, negative with activation”; (Species/Cell Type: Salmonella typhimurium (one or more of the five standard strains: TA98, TA100, TA1535, TA1537, and TA1538), Assay Type: Histidine reverse gene mutation, Ames assay, Assay Code: SAL-, Evaluation Type: Evaluation A (Pre-1980)) “inactive; negative”; under setting [9], “active; positive”; (Species/Cell Type: Syrian hamster embryo (SHE) cells, Assay Type: Cell transformation, clonal assay, Assay Code: CTC+, Evaluation Type: Evaluation A (Pre-1980)) “active; positive”. For the same compound, the call under setting [3] is “active; positive”.
As to `[I][Hg][I]`, the mutagenic call under setting [10] is “inactive; negative”.
Consider `Nc1cccc(O)c1`, for which the mutagenic call is, setting by setting: (Species/Cell Type: Mammalian polychromatic erythrocytes, Assay Type: Micronucleus test, chromosome aberrations, Assay Code: MNTT, Evaluation Type: Evaluation A (Pre-1980)) “no conclusion”; under setting [11], “inactive; negative”.
As to `F`, the mutagenic call under setting [4] is “active; positive”; the mutagenic call (Species/Cell Type: Drosophila melanogaster, Assay Type: Aneuploidy, partial sex chromosome loss, chromosome aberrations, Assay Code: DAPT, Evaluation Type: Evaluation A (Pre-1980)) is listed as “no conclusion”; the mutagenic call (Species/Cell Type: Drosophila melanogaster, Assay Type: Aneuploidy, sex chromosome gain, chromosome aberrations, Assay Code: DAG-F, Evaluation Type: Evaluation A (Pre-1980)) is “inactive; negative”; the mutagenic call under setting [5] was “active; positive”; the mutagenic call under setting [6] is “active; positive”; the mutagenic call under setting [12] is listed as “no conclusion”. The mutagenic call runs as follows: under setting [13], “active; positive”; (Species/Cell Type: Human lymphocytes, Assay Type: Sister-chromatid exchange (SCE) in vitro, Assay Code: SCLT, Evaluation Type: Evaluation B (Post-1980)) “no conclusion”; under setting [14], “active; positive”; (Species/Cell Type: Human, Assay Type: Sister-chromatid exchange (SCE) in vitro, Assay Code: SC1T, Evaluation Type: Evaluation B (Post-1980)) “no conclusion”; under setting [7], “active; positive”; under setting [11], “inactive; negative”. Further, the mutagenic call was “inactive; negative” (Species/Cell Type: Nonhuman lymphocytes or leukocytes, Assay Type: Chromosome aberrations in vivo, Assay Code: CY%-, Evaluation Type: Evaluation A (Pre-1980)); “inactive; negative” (Species/Cell Type: Nonhuman, Assay Type: Sister-chromatid exchange (SCE) in vivo, Assay Code: SC3-, Evaluation Type: Evaluation A (Pre-1980)); “no conclusion” (Species/Cell Type: Nonhuman, Assay Type: Sister-chromatid exchange (SCE) in vivo, Assay Code: SC3T, Evaluation Type: Evaluation B (Post-1980)); “inactive; negative” (Species/Cell Type: Saccharomyces cerevisiae, Assay Type: Mitotic recombination or gene conversion, Assay Code: YEC-, Evaluation Type: Evaluation A (Pre-1980)); “no conclusion” under setting [15].
As for `[O]=[Zr]`, the mutagenic call under setting [10] was “inactive; negative”.
Regarding `Cc1cc2c(C(C)C)c(O)c(O)c(C=O)c2c(O)c1-c1c(C)cc2c(C(C)C)c(O)c(O)c(C=O)c2c1O`, the mutagenic call under setting [13] is “active; positive”; the mutagenic call under setting [14] was “active; positive”; the mutagenic call (Species/Cell Type: Human, Sex: Male, Assay Type: Sperm morphology, Assay Code: SPH+, Evaluation Type: Evaluation A (Pre-1980)) is “active; positive”; the mutagenic call (Species/Cell Type: Mouse, Sex: Male, Assay Type: Sperm morphology, Assay Code: SPI+, Evaluation Type: Evaluation A (Pre-1980)) is “active; positive”; the mutagenic call (Species/Cell Type: Rabbit, Sex: Male, Assay Type: Sperm morphology, Assay Code: SPRT, Evaluation Type: Evaluation A (Pre-1980)) is “no conclusion”; the mutagenic call (Species/Cell Type: Rat, Sex: Male, Assay Type: Sperm morphology, Assay Code: SPA+, Evaluation Type: Evaluation A (Pre-1980)) is “active; positive”.
As to `Nc1ccc(-c2nc(N(CCO)CCO)c3ccccc3n2)s1`, under setting [15], the mutagenic call was “no conclusion”.
As to `CC1CN1P(=O)(Cc1ccccc1)N1CC1C` (stereo unspecified), under setting [6], the mutagenic call was “active; positive”.
As for `[Cl][Sn]([Cl])([Cl])[Cl]`, under “Species/Cell Type: Bacillus subtilis (H17 vs M45), Assay Type: Rec-assay, spot test, DNA effects (bacterial DNA repair), Assay Code: REW-, Evaluation Type: Evaluation A (Pre-1980)”, the mutagenic call was “inactive; negative”.
As to `CCOP(=S)(OCC)SCSc1ccc(Cl)cc1`, the mutagenic call under setting [14] was “active; positive”.
Take `FC(F)Cl`: the mutagenic call (Species/Cell Type: Tradescantia species, Assay Type: Gene mutation, Assay Code: TRM+D, Dose Response: With dose response, Evaluation Type: Evaluation A (Pre-1980)) is “active; positive”.
With `OCCN(CCO)CCO`, under setting [4], the mutagenic call is “active; positive”.
Consider `O=[N+]([O-])c1ccc2[nH]ccc2c1`, for which the mutagenic call under setting [8] is “active; positive”.
For the compound `CCCOc1nc2c(c(=O)n(C)c(=O)n2C)n1C`, under setting [4], the mutagenic call is “active; positive”.
For `CN[C@@H](C)Cc1ccccc1`, under setting [12], the mutagenic call is on record as “no conclusion”.

The values above are taken from PubChem BioAssay AID1259408 (Genetic Toxicology Data Bank (GENE-TOX), 2018).
